In paper PMC12337082 (Journal of Biochemical and Molecular Toxicology, 2025):

Experiments:
MCF‐7 [1] = assay: MTT cell viability assay, MCF‐7; assay type: cell-based, human; details: for IC50: Homo sapiens, MCF7, MTT
Description: (§1) MCF‐7, MDA‐MB‐231, and L‐929 mouse fibroblast cell lines were obtained from the American Type Culture Collection (ATCC, Manassas, Virginia, USA). MCF‐7 is a hormone‐responsive, differentiated mammary epithelium cell line with an ER+, PR+, and HER2‐ pattern (ATCC, HTB‐22). MDA‐MB‐231 is a triple‐negative differentiated mammary epithelium cell line (ATCC, HTB‐26). The L‐929 mouse fibroblast cell line is derived from the normal subcutaneous connective tissue of a mouse and is commonly used in cytotoxicity assays (ATCC, CCL‐1). All cell lines were cultured in DMEM medium (Dulbecco's Modified Eagle Medium, Gibco), supplemented with 10% fetal bovine serum (Gibco), 1% glutamine, and penicillin/streptomycin (Gibco) in a humidified atmosphere containing 5% CO2 at 37°C. Cell viability was tested using Trypan blue staining.
(§2) The MTT [3‐(4,5‐dimethylthiazol‐2‐yl)−2,5‐diphenyltetrazolium bromide] assay is a colorimetric assay for determining cell metabolic activity. In the MTT assay, the yellow dye MTT that dissolves in water is changed by mitochondrial reductase into a purple formazan that is non‐soluble. The water‐insoluble formazan produced is solubilized in a solubilization buffer, and absorbances are detected.
(§3) In 96‐well plates, the cells were cultivated at a density of 5 × 10^3 cells/well using 100 µL medium. […] 10 μL of the MTT labeling reagent (final concentration 0.5 mg/mL) were added to each well at the end of the incubation periods, and the wells were incubated for an additional 4 h. Next, each well received 100 μL of solubilization buffer (10% SDS in 0.01 M HCl) and was overnight incubated, and the absorbance of formazan products was evaluated at 550 nm using a multi‐mode microplate reader (Synergy H1, Biotech Instruments Inc., Vermont, USA). The results were normalized relative to the absorbances of calculated percent concentrations of DMSO. All tests involved three replicates with three independent experiments.
(§4) All statistical evaluations, including t‐tests and IC50 values, were calculated using the GraphPad Prism software tool (v6.0, GraphPad Software Inc., San Diego, USA). Statistical significance was defined as p ˂ 0.05 (*p < 0.05, **p < 0.01, ***p < 0.001, ****p < 0.0001).

MDA‐MB‐231 = assay: MTT cell viability assay, MDA‐MB‐231; assay type: cell-based, human; details: for IC50: MTT
Description: as §1, §2, §3, §4

[2] = system: L‐929 mouse fibroblast cell line; assay: MTT cell viability assay, L‐929 control fibroblasts; assay type: cell-based
Description: as §1, §2, §3, §4

MCF‐7 [3] = assay: Annexin V/PI staining, Tali image‐based cytometry, MCF‐7; assay type: cell-based, human; details: MCF‐7, 24 h
Description: To assess apoptosis and cell death, cells were stained with Annexin V‐PI dyes (Tali Apoptosis Kit‐Annexin V Alexa Fluor 488 and PI‐, Molecular Probes A10788, Invitrogen) and quantified using Tali Image‐Based Cytometer (Invitrogen) and fluorescence microscopy (Olympus CKX41 Inverted Phase Contrast Fluorescence Microscope furbished with reflected fluorescence illuminator CKX‐RFA).
To assess whether our compounds produce their cytotoxic effects through induction of apoptosis, apoptosis was investigated using Annexin V/PI labeling and MMP methods (Figures 4A−C). In addition, by utilizing TALI image‐based cytometry and fluorescent microscopy, the number of cells was analyzed for different concentrations of agents (Table 4).

MCF‐7 [4] = assay: Mitochondrial membrane potential (JC‐1) apoptosis assay, MCF‐7; assay type: cell-based, human; details: MCF‐7, 50 μM, 24 h, MMP assay
Experimental: (§5) Apoptosis was also investigated by evaluating mitochondrial membrane potential changes (MMP assay). MCF‐7, MDA‐MB‐231, and L‐929 cells were stained with JC‐1 dye according to the manufacturer's protocols (JC‐1 MMP Assay Kit, KA1324, Abnova). The apoptotic to healthy cell ratio was calculated using absorbances collected from two different fluorescence channels (535/595 for healthy cells, 485/535 for apoptotic cells) (Synergy H1, Biotech Instruments Inc., Vermont, USA).

L‐929 = assay: Mitochondrial membrane potential (JC‐1) apoptosis assay, L‐929; assay type: cell-based, mouse; details: L‐929, 50 μM, 24 h, MMP assay
Experimental: as §5

COX‐2 = assay: Western blot COX‐2 protein expression, MCF‐7; assay type: cell-based, human; details: 24 h
Experimental: (§6) Total protein levels were measured using the Take3 Multi‐Volume Plate (Synergy H1, BioTek Instruments Inc., Vermont, USA). In accordance with the classical protocol, transferred proteins were exposed to the following primary antibodies: Beta‐actin (NB600‐501, Novus Biologicals), Bax (SPM336, NBP2‐32809), Bcl‐2 (100/D5, NBP2‐15200), cleaved PARP (194C1439, NBP2‐27335), and COX‐2 (D‐12:sc‐166475, Santa Cruz). The bands were visualized with chemiluminescent HRP substrates (Western Bright ECL‐Advansta, K‐12045‐050). Using a chemiluminescence imaging system (Celvin S, BioStep), the relative quantification was done based on the level of β‐actin proteins.

PGE2 release = assay: PGE2 ELISA, MCF‐7; assay type: cell-based, human; details: Homo sapiens, MCF7; MCF‐7, 50 µM, 24 h
Experimental: PGE2 ELISA kit (ENZO, ADI‐900‐001) was used to determine prostaglandin synthesis levels. MCF‐7 and MDA‐MB‐231 breast cancer cells were cultured at a density of 1 × 10^6 cells/well in a 6‐well culture dish. […] Following 24 h of incubation, the medium was replaced with a fresh one, 10 µM arachidonic acid was added, and it was further incubated for 1 h. The PGE2 levels were determined according to the kit protocol.

Bax/Bcl‐2 ratio = assay: Western blot Bax/Bcl‐2 ratio in breast cancer cell lines; assay type: cell-based, human; details: both cell lines, 50 µM, 24 h
Experimental: as §6

c‐PARP = assay: Western blot cleaved PARP, MDA‐MB‐231; assay type: cell-based, human; details: MDA‐MB‐231, 24 h, all concentrations (50 and 75 µM); not measurable in MCF‐7
Experimental: as §6

## CCc1cccc2c3c([nH]c12)C(CC)(CC(=O)N/N=C/c1ccc(OC)cc1)OCC3 (racemic) [SGK 206, 2‐(1,8‐Diethyl‐1,3,4,9‐tetrahydropyrano[3,4‐b]indole‐1‐yl) acetic acid[(4‐methoxyphenyl)methylene]acetohydrazide]
MCF‐7 [1]; MCF‐7, 24 h
  IC50: 37 ± 1.74 µM
MCF‐7 [1]; MCF‐7, 48 h
  IC50: 34 ± 5.7 µM
MCF‐7 [1]; MCF‐7, 72 h
  IC50: 26 ± 0.66 µM
MCF‐7 [1]; MCF‐7 in comparison to L‐929, 24 h
  Selectivity index (SI): 1.93
MCF‐7 [1]; MCF‐7 in comparison to L‐929, 48 h
  Selectivity index (SI): 1.4
MCF‐7 [1]; MCF‐7 in comparison to L‐929, 72 h
  Selectivity index (SI): 1.91
MDA‐MB‐231; Homo sapiens, MDA-MB-231, 24 h, MDA‐MB‐231, 24 h
  IC50: 43 µM
MDA‐MB‐231; Homo sapiens, MDA-MB-231, 48 h, MDA‐MB‐231, 48 h
  IC50: 38 ± 2.3 µM
MDA‐MB‐231; Homo sapiens, MDA-MB-231, 72 h, MDA‐MB‐231, 72 h
  IC50: 36 ± 3.19 µM
MDA‐MB‐231; MDA‐MB‐231, 24 h
  IC50: 43.2 ± 1.94 µM
MDA‐MB‐231; MDA‐MB‐231 in comparison to L‐929, 24 h
  Selectivity index (SI): 1.65
MDA‐MB‐231; MDA‐MB‐231 in comparison to L‐929, 48 h
  Selectivity index (SI): 1.26
MDA‐MB‐231; MDA‐MB‐231 in comparison to L‐929, 72 h
  Selectivity index (SI): 1.38
[2]; L‐929, 24 h
  IC50: 71.3 ± 2.92 µM
[2]; L‐929, 48 h
  IC50: 47.9 ± 1.2 µM
[2]; L‐929, 72 h
  IC50: 49.7 ± 1.64 µM
[2]; Mus musculus, L929, 24 h, L‐929, 24 h
  IC50: 71 µM
[2]; Mus musculus, L929, 48 h, L‐929, 48 h
  IC50: 47 µM
[2]; Mus musculus, L929, 72 h, L‐929, 72 h
  IC50: 49 µM
MCF‐7 [3]; 25 µM
  Apoptotic cells: 2%
  Dead cells: 9%
  Live cells: 89%
MCF‐7 [3]; 50 µM
  Apoptotic cells: 4%
  Dead cells: 15%
  Live cells: 81%
MCF‐7 [3]; 75 µM
  Apoptotic cells: 19%
  Dead cells: 19%
  Live cells: 62%
MCF‐7 [4]
  Increase in apoptosis compared to the control group: 48%
L‐929
  Increase in apoptosis compared to the control group: 8%
COX‐2; MCF‐7, 50 µM
  Decrease in COX‐2 protein expression compared to the control group: 30%
COX‐2; MCF‐7, 75 µM
  Decrease in COX‐2 protein expression compared to the control group: 41%
PGE2 release
  inhibition at 50 µM: 90%
Bax/Bcl‐2 ratio
  Bax/Bcl‐2 ratio change: significantly increased
c‐PARP
  c‐PARP (89‐kD fragment) protein change: consistent activation
